A short description of data set [1]: Effective permeability of the compound by PAMPA assay. It counts as ADME. To be noted: read-out: Peff.
Data set [2] deals with Acetylcholinesterase (Homo sapiens, UniProt P22303). The experiment in a line: Inhibition of human recombinant AChE using acetylthiocholine iodide as substrate preincubated for 20 mins by Ellman method.
For data set [3], the system named is Trypanosoma brucei. The experiment in a line: Trypanocidal activity against bloodstream forms of Trypanosoma brucei 221 assessed as growth inhibition after 48 hrs by resazurin assay. It counts as functional, organism-based. The settings on record: Trypanosoma brucei, 221, 48 h.
In data set [4] the test system is Plasmodium falciparum. The experiment in a line: Antiplamodial activity against chloroquine-resistant bloodstream forms of Plasmodium falciparum K1 infected in human A+ erythrocytes assessed as growth inhibition after 48 hrs by spectrophotometry. It counts as functional, organism-based. To be noted: K1, 48 h.
The nature of data set [5]: Selectivity index, ratio of IC50 for rat L6 cells to IC50 for bloodstream forms of Trypanosoma brucei 221. It counts as toxicity, cell-based. The settings on record: L6 cells versus bloodstream forms of Trypanosoma brucei 221, read-out: Ratio IC50.
Data set [6] relates to L6. In words: Cytotoxicity against rat L6 cells after 6 days by resazurin assay. It counts as cell-based. To be noted: L6, 144 h.

Sequence of Acetylcholinesterase (P22303 whole entry): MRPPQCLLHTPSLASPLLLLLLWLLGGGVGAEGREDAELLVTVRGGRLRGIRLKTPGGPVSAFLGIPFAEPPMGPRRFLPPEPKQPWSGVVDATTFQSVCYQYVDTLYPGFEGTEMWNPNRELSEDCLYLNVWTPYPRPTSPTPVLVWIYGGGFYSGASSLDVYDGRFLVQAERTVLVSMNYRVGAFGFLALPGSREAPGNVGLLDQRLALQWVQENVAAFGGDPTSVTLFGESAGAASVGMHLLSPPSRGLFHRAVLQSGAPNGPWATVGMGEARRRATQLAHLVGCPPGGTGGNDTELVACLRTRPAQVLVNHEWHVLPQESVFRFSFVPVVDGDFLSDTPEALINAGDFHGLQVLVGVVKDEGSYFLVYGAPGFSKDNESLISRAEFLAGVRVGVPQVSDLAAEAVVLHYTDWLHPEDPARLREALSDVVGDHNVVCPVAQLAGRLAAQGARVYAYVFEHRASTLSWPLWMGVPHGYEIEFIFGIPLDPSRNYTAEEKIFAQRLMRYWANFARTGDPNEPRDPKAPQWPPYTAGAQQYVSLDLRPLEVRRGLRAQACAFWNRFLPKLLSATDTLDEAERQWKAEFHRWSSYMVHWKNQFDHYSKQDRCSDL

`CC1=C[C@H]2Cc3nc4cc(Cl)ccc4c(NCCCCCCNc4c5c(nc6cc(Cl)ccc46)C[C@@H]4C=C(C)C[C@H]5C4)c3[C@@H](C1)C2`: in data set [1], the Papp was 11.1 ×10⁻⁶ cm/s. For the same compound, the IC50 in data set [2] was 192 nM; in data set [3], 890 nM; in data set [4] it was > 6000 nM; in data set [6], 1610 nM. Also, the IC90 in data set [3] worked out at 1090 nM. In addition, in data set [5], the selectivity ratio came out at 1.8.
Take `CC1=C[C@H]2Cc3nc4cc(Cl)ccc4c(NCCCCCCCCNc4c5c(nc6cc(Cl)ccc46)C[C@@H]4C=C(C)C[C@H]5C4)c3[C@@H](C1)C2`: in data set [1], the Papp amounted to 13.9 ×10⁻⁶ cm/s. Also, the IC50 in data set [2] is 72.5 nM; in data set [3], 520 nM; in data set [4], > 6000 nM; in data set [6], 4920 nM. The IC90 in data set [3] worked out at 740 nM. In addition, the selectivity ratio in data set [5] was 9.5.
Turning to `CC1=C[C@H]2Cc3nc4cc(Cl)ccc4c(NCCCCCCCCCCNc4c5c(nc6cc(Cl)ccc46)C[C@@H]4C=C(C)C[C@H]5C4)c3[C@@H](C1)C2`, the Papp in data set [1] came out at 8.7 ×10⁻⁶ cm/s. The half-maximal inhibitory concentration (IC50) in data set [2] was 17.5 nM; in data set [3] it was 500 nM; in data set [4] it was > 6000 nM; in data set [6], 7710 nM. Further, the IC90 in data set [3] amounted to 730 nM. The selectivity ratio in data set [5] stood at 15.4.
As for `CC1=C[C@H]2Cc3nc4cc(Cl)ccc4c(NCCCCCCCCCCCCNc4c5c(nc6cc(Cl)ccc46)C[C@@H]4C=C(C)C[C@H]5C4)c3[C@@H](C1)C2`, in data set [1], the Papp stood at 17.4 ×10⁻⁶ cm/s. Moreover, the IC50 is 431 nM in data set [2], 760 nM in data set [3], > 6000 nM in data set [4] and 28500 nM in data set [6]. The IC90 in data set [3] is 990 nM. Besides, the selectivity ratio in data set [5] is 37.5.
In the case of `CC1=C[C@H]2Cc3nc4cc(Cl)ccc4c(NCc4ccc(CNc5c6c(nc7cc(Cl)ccc57)C[C@@H]5C=C(C)C[C@H]6C5)cc4)c3[C@@H](C1)C2`, the Papp in data set [1] came out at 8.3 ×10⁻⁶ cm/s. In addition, the half-inhibitory concentration (IC50) in data set [3] is 570 nM; in data set [4], > 6000 nM; in data set [6], 16100 nM. The 90% effect concentration (IC90) in data set [3] was determined as 750 nM. Moreover, the selectivity ratio in data set [5] was 28.2.
On to `C[C@@H]1CC[C@H]2[C@@H](C)C(=O)O[C@@H]3O[C@@]4(C)CC[C@@H]1[C@]32OO4` [ARTEMISININ], for which the IC50 in data set [4] is 91 nM.
The same measure, in the same setting: to `CC1=CC2Cc3nc4cc(Cl)ccc4c(N)c3C(C1)C2` (stereo unspecified) [HUPRINE Y] belongs > 10000 nM.

Source of the values: ChEMBL document CHEMBL3351941, “Synthesis and antiprotozoal activity of oligomethylene- and p-phenylene-bis(methylene)-linked bis(+)-huprines” (Bioorg Med Chem Lett, 2014).
